According to patent US8999890B2, “Signaling compositions, methods, and systems for effecting plant burndown and herbicide enhancement” (KamTec, priority 2013, dated 2015):
Values joined by “and” are separate entries in the source; they are usually repeats but may differ in a detail not shown here. Equal entries are not always repeated.

Legend:
Assay type in all cases: in vivo
‘M-202’ type rice = assay: Rice seed soaking treatment, 24 hours (Example II); conditions: for Biomass / Height / Tillering: 24 hrs soak, tap water irrigation, vs Set 1 (water)
Protocol: In this preferred embodiment of the present invention, seeds are soaked in prepared bio-regulator solutions for a period of 24 hours. Rice seeds were selected from the same ‘M-202’ type grains as in the previous study. The bio-regulator solutions were prepared using 5 ppm BMPA solution. The solution was drained and seeds planted in starter plastic containers filled with potting soil. After germination and plant growth reaching height of four inches, rice seedlings were transplanted from their greenhouse containers to six-inch diameter plastic containers and placed outdoor. Again, two sets of three pots for the control and test group were used.
These studies were also carried out using an increased amount of BMPA. The amount was increased from 1 ppm to 5 ppm, and the results of the study were similar to the results outlined in the paragraph above.

[1] = test system: aphid infestation on cotton Bt plant; assay: Cotton Bt seed soaking, aphid infestation (Example VII)
Protocol: In this preferred embodiment of the present invention, seeds were soaked for a period of 3 hours in the bio-regulator solution. Cotton Bt were selected and studied to determine if bio-regulator chemistry will enhance or influence the inserted Bt genes of the transgenic plant. The seeds were separated into two different sets on July 2. The first set, Set 1, was soaked in 5 ppm BMPA solution with 0.05% Kinetic®. The second set, Set 2, was soaked in water with 0.05% v/v Kinetic®. The solution was drained and the treated seeds planted in starter plastic trays. After germination and after the seedlings reached the height of four inches, the cotton Bt plants were transplanted into larger six-inch plastic containers. The cotton plants were placed outdoors for the duration of the study. The different sets of plants were regularly observed throughout this study.

[2] = test system: sunflower, Melody variety; assay: Sunflower seed soaking, field plots (Example XI); conditions: for % Moist: control 12.53; for Wt at 6% Moist: control 60.74; for Wt. at 6 % Moist: normalized to 6% seed moisture content
Source text: In this preferred embodiment of the present invention, sunflower seeds were selected from the Melody variety and were soaked for three hours in solutions containing 0.05% Tween 20 and BMTA or BMPA, at a concentration of 3 ppm. Another group of seeds of the same variety was soaked in a solution with only in 0.05% Tween 20 added (control). Following soaking, seeds were desiccated to storage moisture contents and BMTA, BMPA and control seeds were sown in three twenty-five foot plots (Reps) each on May 21 (plots were arranged in a randomized block design). On September 16, sunflower heads were harvested, with a harvest of around 20 heads per plot/Rep on average. The heads were hand-threshed to collect seeds. Moisture, count, and weight data was collected on seeds from each head.

[3] = test system: ‘M-202’ medium-grain rice (Oryza sativa L.); assay: Rice seed soaking treatment with NaCl irrigation (Example I)
Protocol: In another preferred embodiment of the present invention, seeds are soaked in prepared bio-regulator solutions for a period of three hours. Rice seeds were selected from ‘M-202’ medium-grain rice (Oryza sativa L.), (Reg. no 72) PI494105 type grains; this selection was meant to represent a typical California rice seed, and was not meant to be limiting. The bio-regulator solutions are prepared using 5 ppm BMTA solution with 0.05% v/v Kinetic® made by Helena Chemical Company. The solution was drained and the seeds planted in starter plastic containers with potting soil. After germination and having grown to 4 inches in height, the plants were transplanted into 6 inch diameter plastic containers. Two sets of three pots each were set up for this study; one set for the test group and one set for the control group. Both the control and test studies were irrigated with 1500 ppm NaCl solution from time of planting until the study was completed. The purpose of the NaCl irrigation was to determine the effect of the bio-regulator treatment in regards to salt tolerances.

geranium slips = assay: Treatment of geranium slips (Example III)
Protocol: In this preferred embodiment of the present invention, according to common geranium cutting means, geraniums were slipped into 18 slips of similar length. In this example the slips had no flower buds. The slips were separated into four different sets: three slips each in three of the sets, and then nine slips in the final set. The slips are then treated with bio-regulator solutions formed from compositions from the different groups and water. In the first set, the slips were treated with BMVE solution; in the second set, the slips were treated with BMTA solution; in the third set, the slips were treated with BMIA in bromide solution; and, in the fourth set, the nine slips were treated with water.
The treatment with bio-regulator solution preferably occurs in the initial planting of the geranium slips, but can also occur at any time from the forming of the geranium slips up to and including the transplanting of the slips. The treatment can occur after transplanting, but this is not the preferred method. […]
The study associated with this embodiment is summarized in Table 3-A below, where Set 1 is the control group and Set 2 is the test group. […] The ratios for Table 3-C are calculated by totaling the heights grown by each slip in each set and comparing it to the control counterpart that was grown in similar environmental conditions, without the treatment of the bio-regulator solutions. […]

[4] = mean over the three Reps, control 65.47
[5] = mean over the three Reps, control 1062
[6] = mean over the three Reps, control 2676
[7] = per Rep (plot), 3 ppm, three hours soak
[8] = per Rep, estimate based on planting rate of 20,000 seeds/acre
[9] = BMTA soln. 5 ppm, 3 hours seed soak, NaCl soln. irrigation, vs Set 1 (tap water)

## CN(CCOC(=O)COc1ccccc1)Cc1ccccc1 [BMPA]
‘M-202’ type rice; 5 ppm BMPA, 24 hours soak
  Observed growth from planting through completion of the study: enhanced growth
‘M-202’ type rice; BMPA 1 ppm
  Biomass: ~4 x Set 1
  Height: ~1.2 x Set 1
  Tillering: ~4 x Set 1
‘M-202’ type rice; BMPA 5 ppm
  Biomass: ~4 x Set 1
  Height: ~1.2 x Set 1
  Tillering: ~4 x Set 1
[1]; 5 ppm BMPA seed soak vs untreated
  Delay of the infestation of aphids on the cotton Bt plant: ≤ 19 days
[1]; 47 days after planting, 5 ppm BMPA, 3 hrs seed soak, control L-Aphid
  Aphid infestation, Treated: No Aphid
[1]; 55 days after planting, control H-Aphid
  Aphid infestation, Treated: No Aphid
[1]; 57 days after planting, control H-Aphid
  Aphid infestation, Treated: L-Aphid
[1]; 74 days after planting, control Stressed
  Aphid infestation, Treated: M-Aphid
[2]; mean over the three Reps
  % Moist: 13.27%
  Wt at 6% Moist: 64.29
[2]; [4]
  Fresh Seed Wt.: 69.75 g
[2]; [5]
  Seed Count: 1071
[2]; [6]
  Yield @ 20,000 Plants/Acre: 2832 lbs
[2]; [7]
  % Moist (seed moisture content): 13.52% and 13.93% and 12.37%
  Fresh Seed Wt.: 78.24 gm and 65.01 gm and 65.99 gm
  Seed Count: 1185 and 977 and 1052
[2]; [8]
  Yield @ 20,000 Plants/Acre: 3171 lbs and 2617 lbs and 2708 lbs
[2]; per Rep
  Wt. at 6 % Moist: 71.99 and 59.42 and 61.46

## Cc1ccc(C(=O)OCCN(C)Cc2ccccc2)cc1 [BMTA]
[3]; 5 ppm BMTA, 1500 ppm NaCl irrigation
  Observed growth from planting through completion of the study: enhanced growth
[3]; [9]
  Biomass: ~3 x Set 1
  Height: Same
  Tillering: ~3 x Set 1
Geranium slips; Day 11, total height vs water control slips
  % of Control: 186.49%
Geranium slips; Day 27, total height vs water control slips
  % of Control: 162.26%
[2]; mean over the three Reps
  % Moist: 13.64%
  Wt at 6% Moist: 65.08
[2]; [4]
  Fresh Seed Wt.: 70.85 g
[2]; [5]
  Seed Count: 1108
[2]; [6]
  Yield @ 20,000 Plants/Acre: 2867 lbs
[2]; [7]
  % Moist (seed moisture content): 13.10% and 13.01% and 14.82%
  Fresh Seed Wt.: 77.35 gm and 73.58 gm and 61.64 gm
  Seed Count: 1226 and 1157 and 942
[2]; [8]
  Yield @ 20,000 Plants/Acre: 3147 lbs and 2989 lbs and 2464 lbs
[2]; per Rep
  Wt. at 6 % Moist: 71.43 and 67.86 and 55.94
